US9861640B2, “Medicament for treatment of Alzheimer's disease” (KEMPHYS LTD., priority 2013, dated 2018)

Experiments:
RARγ = RARγ (Homo sapiens, UniProt P13631); settings: [50]; cited from earlier work
IDE = experiment: Immunoblot of IDE in brains of APP23 mice; format: in vivo, mouse; settings: day 18, vs vehicle-treated APP23 mice, P<0.05
Experimental: APP23 mice begin forming amyloid deposits when they are 6 months old, but memory deficits in the MWM test appear quite early (before 3 months of age). Here, we used 8.5-month-old male APP23 mice and their WT littermates (C57BL/6J). We used stratified random sampling to divide mice (four to six per cage) into four groups to equalize the mean body weight of the study groups: mice given 0.5 mg/kg/d Am80, those given 5 mg/kg/d HX630, those given the mixture of 0.5 mg/kg/d Am80 and 5 mg/kg/d HX630, and those given the vehicle. Am80 and HX630 were suspended in 0.5% (w/v) carboxymethylcellulose solution and were orally administered to mice at 0.5 mg/kg (Am80) or 5 mg/kg (HX630) for 17 consecutive days (once daily at 18:00). Control animals received the same volume of 0.5% (w/v) carboxymethylcellulose solution orally, without the other compounds. We set the 0.5 mg/kg/d dose for Am80 on the basis that this had been found effective in other in vivo studies, such as those by Kawahara et al. and Ishido and Shudo [37]. Higher doses of Am80 (3 mg/kg/d and 6 mg/kg/d) were also orally administered to mice for 17 consecutive days. Animals were weighed once a week. Mice were subjected to behavioral testing on days 15-18 of the first oral administration of the compounds (at 19:00-23:00). On days 15-17 (not day 18), animals received the compounds at 24:00, after behavioral testing. […]

Chain of RARγ (P13631 whole entry, species assumed): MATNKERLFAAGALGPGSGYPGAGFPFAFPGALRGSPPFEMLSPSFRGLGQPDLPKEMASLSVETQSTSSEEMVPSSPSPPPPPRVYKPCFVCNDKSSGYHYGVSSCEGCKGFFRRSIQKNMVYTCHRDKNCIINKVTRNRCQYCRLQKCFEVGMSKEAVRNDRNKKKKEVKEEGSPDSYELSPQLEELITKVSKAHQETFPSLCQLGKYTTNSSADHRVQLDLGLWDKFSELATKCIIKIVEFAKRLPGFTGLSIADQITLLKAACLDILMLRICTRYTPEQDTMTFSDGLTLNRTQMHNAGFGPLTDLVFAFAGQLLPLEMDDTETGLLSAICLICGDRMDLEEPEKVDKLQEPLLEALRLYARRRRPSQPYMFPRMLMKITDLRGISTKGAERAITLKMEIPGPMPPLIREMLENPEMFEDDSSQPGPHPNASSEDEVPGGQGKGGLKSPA

SMILES | binding to RARγ (RARγ) | IDE protein level in the membrane-bound fraction (IDE)
CC1(C)CCC(C)(C)c2cc(NC(=O)c3ccc(C(=O)O)cc3)ccc21 [Am80, 4-{(5,6,7,8-tetrahydro-5,5,8,8-tetramethyl-2-naphthalenyl)carbamoyl}benzoic acid] | hardly binds | –
CN1c2ccccc2N=C(c2ccc(C(=O)O)cc2)c2cc3c(cc21)C(C)(C)CCC3(C)C [HX630, 4-[5H-2,3-(2,5dimethyl-2,5-hexano)-5-methyldibenzo[b,e]-diazepin-11-yl]benzoic acid] | – | increased significantly
